Assay results from US20250332180A1, “CANNABINOIDS AND IL-15 ACTIVATE NK CELLS” (The Regents of the University of California, priority 2022, published 2025).

Columns and labels:
MP2 tumor cells [1] = assay: Cell death assay (PI staining, flow cytometry); assay type: cell-based, human; details: 25-100 μM, 24-48 hours
Procedure: PI staining was used to determine the cell death by flow cytometry. One of two representative experiments is shown in (FIG. 4A) and the compiled data of paired MP2 and PL-12 at the same concentration of WIN 55,212-2 treatment is shown in (FIG. 4B). […] Two experiments were compiled and the % cell death of various WIN 55-212,2 concentration (10, 25, 50 and 100 μM) was compared to the untreated control for both PL12 (FIG. 4C) and MP2 (FIG. 4D). […] Non-linear regression was used to fit the curve of the % cell death induced by WIN 55-212,2 in various concentrations (10, 25, 50 and 100 μM) for both PL12 and MP2 (FIG. 4E).
PI staining was used to determine the cell death by flow cytometry. Compiled data from two experiments is shown.

OSCSCs [2] = details: 24 hours, up to 50 μM
OSCSCs [3] = assay: Microscopy of morphology and viability; assay type: cell-based, human; details: WIN 55,212-2, even at the lowest concentrations, 24 h
Procedure: (§1) Chemical structure of WIN 55,212-2 (FIG. 7A). […] OSCCs and OSCSCs were treated with CDDP (50 μg/mL) and different concentrations of WIN 55,212-2 for 24 hours before the microscopic images were taken. Scale bar=50 μm (FIG. 7B).

OSCCs [4] = assay: Microscopy of morphology and viability; assay type: cell-based, human
Procedure: as §1

PL-12 tumor cells [5] = assay: Cell count of viable cells (Trypan Blue, light microscope); assay type: cell-based, human; details: different concentrations of WIN 55,212-2, 24-48 hours
From the text: (§2) The number of viable cells was counted under light microscope using Trypan Blue staining. Compiled data from three experiments performed is shown.
(§3) The number of viable cells was counted under light microscope using Trypan Blue staining (Sigma, MO, USA).

MP2 tumor cells [6] = assay: as above; assay type: cell-based, human; details: different concentrations of WIN 55,212-2, 24-48 hours
From the text: as §2, §3

PL-12 tumor cells [7] = details: 48 h, 25-100 μM
OSCSCs [8] = assay: Cell death assay (PI staining, flow cytometry); assay type: cell-based, human
Procedure: (§4) No differences between untreated tumor cells and those treated with the DMSO vehicle alone in cell count or the amount of cell death in OSCCs and OSCSCs. […] Proportion of the live cells that had lost forward and side scatter were determined indicating decreased viability of the cells. In addition, the numbers of viable cells were determined after PI staining followed by flow cytometric analysis (FIG. 2A). OSCC tumor cells were treated as in FIG. 2A and the cells were analyzed by flow cytometry to determine the proportion of the live cells that had lost forward and side scatter indicating decreased viability of the cells (FIG. 2B) and the numbers of viable OSCC tumor cells were determined after PI staining followed by flow cytometric analysis (FIG. 2C). […] PI staining was used to determine the cell death by flow cytometry. One of four representative experiment is shown in (FIG. 2D). The compiled data of paired OSCCs and OSCSCs at the same concentration of WIN 55,212-2 treatment from four experiments is shown in (FIG. 2E). Four experiments were compiled and the % cell death of tumor cells by various WIN 55-212,2 concentrations (10, 25, 50 and 100 μM) were compared to the untreated control for both OSCC (FIG. 2F) and OSCSC (FIG. 2G). […] Non-linear regression was used to fit the curve of the % cell death induced by WIN 55-212,2 in various concentrations (10, 25, 50 and 100 μM) for both OSCC and OSCSC. […] The differences were clear within each independent experiment.
(§5) PI staining was used to determine the cell death by flow cytometry. Compiled data from four independent experiments performed is shown.

OSCCs [9] = assay: Cell death assay (PI staining, flow cytometry); assay type: cell-based, human; details: 24 hours
Procedure: as §4, §5

tumors = details: cited from earlier work
MP2 tumor cells [10] = tested on: MP2 tumor cells
PL-12 tumor cells [11] = assay: Microscopy of morphology and viability; assay type: cell-based, human; details: different concentrations of WIN 55,212-2, 24 hours
Procedure: (§6) MP2 and PL-12 tumor cells were treated with CDDP (50 μg/mL) and different concentrations of WIN 55,212-2 for 24 hours before the microscopic images were taken. Scale bar=50 μm.

MP2 tumor cells [12] = assay: Microscopy of morphology and viability; assay type: cell-based, human; details: different concentrations of WIN 55,212-2, 24 hours
Procedure: as §6

CS(=O)(=O)O.Cc1c(C(=O)c2cccc3ccccc23)c2cccc3c2n1[C@H](CN1CCOCC1)CO3 [WIN 55,212-2, (R)-(+)-[2,3-Dihydro-5-methyl-3-(4-morpholinylmethyl)pyrrolo[1,2,3-de]-1,4-benzoxazin-6-yl]-1-naphthalenylmethanone mesylate]
percentages of dead cells (PI staining) (MP2 tumor cells [1]): approximately 30%
cell surface expression of CD44 (OSCSCs [2]): decreased
cell surface expression of CD54 (OSCSCs [2]): decreased
cell surface expression of MHC class I (OSCSCs [2]): remained unchanged
cell surface expression of PD-L1 (OSCSCs [2]): decreased
morphology and attachment (OSCSCs [3]): became detached from the culture plates
morphology and viability (OSCCs [4]; 50 μM or higher concentrations of WIN 55,212-2, 24 h): some of the OSCCs still remained viable but others rounded up and detached and were not viable
morphology and viability (OSCCs [4]; low concentrations of WIN 55,212-2, 24 h): remained viable
decreased numbers of viable cells (PL-12 tumor cells [5]): 50-70%
decreased numbers of viable cells (MP2 tumor cells [6]): 60-85%
cell surface expression of CD44 (PL-12 tumor cells [7]): Decreased cell surface expression
cell surface expression of CD54 (PL-12 tumor cells [7]): decreased the expression
cell surface expression of MHC class I (PL-12 tumor cells [7]): increased on PL-12 tumor cells
cell surface expression of PD-L1 (PL-12 tumor cells [7]): increased in PL-12
amounts of cell death in OSCSCs compared with those induced by CDDP (OSCSCs [8]; 25-100 μM): either similar or higher
cell death (PI staining) compared with OSCCs (OSCSCs [8]; all concentrations tested, 24 hours): higher cell death
cell death (PI staining) (OSCCs [9]; 75 and 100 μM): up to 10%
forward scatter/side scatter (size of cells, early apoptosis) (OSCCs [9]; different concentrations): significant dose dependent decrease
migration and invasion of tumors (tumors; previously reported in several studies): inhibiting
anti-tumor effect, mechanism (tumors; previously reported): inducing caspase-independent apoptosis
cell surface expression of CD44 (MP2 tumor cells [10]; 48 h, 25-100 μM): Decreased cell surface expression
cell surface expression of CD54 (MP2 tumor cells [10]; 48 h, 25-100 μM): decreased the expression
cell surface expression of MHC class I (MP2 tumor cells [10]; 48 h, 25-100 μM): decreased on MP2 tumor cells
cell surface expression of PD-L1 (MP2 tumor cells [10]; 48 h, 25-100 μM): decreased in MP2 tumor cells
extent of decrease in all surface receptor expressions, MP2 compared with PL-12 (MP2 tumor cells [10]; after WIN 55,212-2 treatments): significantly greater
morphology and viability (PL-12 tumor cells [11]): maintained their morphology and remained viable
morphology and viability (MP2 tumor cells [12]): largely lost their shape and morphology
